Test results from patent US8927500B2, “Peptidomimetic macrocycles” (Aileron Therapeutics, Inc., priority 2012, dated 2015).
Read-outs that look alike come from different tables or passages of the source.

What was measured:
[1] = molecular target: MDM2 (Homo sapiens, UniProt Q00987); experiment: Competitive fluorescence polarization assay for MDM2; assay type: binding; details: competitive FP assay, MDM2
[2] = molecular target: T1, MDMX (Homo sapiens, UniProt O15151); experiment: Competitive fluorescence polarization assay for MDMX; assay type: binding; details: competitive FP assay
T1 sequence (O15151 1-125): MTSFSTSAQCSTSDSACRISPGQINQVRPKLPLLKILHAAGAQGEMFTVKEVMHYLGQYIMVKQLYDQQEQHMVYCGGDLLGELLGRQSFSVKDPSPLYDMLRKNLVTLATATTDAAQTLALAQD

MDM2, sequence (Q00987 1-125): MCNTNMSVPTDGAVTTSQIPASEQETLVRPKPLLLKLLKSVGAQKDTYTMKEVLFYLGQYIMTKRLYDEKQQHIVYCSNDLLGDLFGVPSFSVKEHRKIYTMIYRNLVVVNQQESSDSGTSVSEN

| Structure (SMILES) | IC50 ([1]; read-out: IC50 (MDM2)) | Ki ([1]; read-out: Ki (MDM2)) | IC50 ([2]; read-out: IC50 (MDMX)) | Ki ([2]; read-out: Ki (MDMX)) | IC50 ([1]; IC50 (MDM2)) | Ki ([1]; Ki (MDM2)) | IC50 ([2]; IC50 (MDMX)) | Ki ([2]; Ki (MDMX)) |
| --- | --- | --- | --- | --- | --- | --- | --- | --- |
| CCCC[C@H](NC(=O)[C@@H](C)NC(=O)[C@H](C)NC(=O)[C@]1(C)CCCC=CCCCCCC[C@@](C)(NC(=O)[C@H](Cc2ccccc2)NC(=O)[C@@H](NC(=O)[C@H](CC(C)C)NC(C)=O)[C@@H](C)O)C(=O)N[C@@H](C)C(=O)N[C@@H](Cc2ccc(O)cc2)C(=O)N[C@@H](Cc2c[nH]c3ccccc23)C(=O)N[C@@H](C)C(=O)N[C@@H](CCC(N)=O)C(=O)N[C@@H](CC(C)C)C(=O)N1)C(=O)N[C@@H](C)C(N)=O (single isomer, unassigned) [compound 394] | < 10 nM | < 10 nM | 10 to 100 nM | < 10 nM |  |  |  |  |
| CCCC[C@H](NC(=O)[C@H](C)NC(=O)[C@H](C)NC(=O)[C@]1(C)CCCC=CCCCCCC[C@@](C)(NC(=O)[C@H](Cc2ccccc2)NC(=O)[C@@H](NC(=O)[C@H](CC(C)C)NC(C)=O)[C@@H](C)O)C(=O)N[C@@H](C)C(=O)N[C@@H](Cc2ccc(O)cc2)C(=O)N[C@@H](Cc2c[nH]c3ccccc23)C(=O)N[C@@H](C)C(=O)N[C@@H](CCC(N)=O)C(=O)N[C@@H](CC(C)C)C(=O)N1)C(=O)NC(C)(C)C(N)=O (single isomer, unassigned) [compound 398] | 10 to 100 nM | < 10 nM | 10 to 100 nM | 10 to 100 nM |  |  |  |  |
| CCCC[C@H](NC(=O)[C@H](C)NC(=O)[C@H](C)NC(=O)[C@]1(C)CCCC=CCCCCCC[C@@](C)(NC(=O)[C@H](Cc2ccccc2)NC(=O)[C@@H](NC(=O)[C@H](CC(C)C)NC(C)=O)[C@@H](C)O)C(=O)N[C@@H](C)C(=O)N[C@@H](Cc2ccc(O)cc2)C(=O)N[C@@H](Cc2c[nH]c3ccccc23)C(=O)N[C@@H](C)C(=O)N[C@@H](CCC(N)=O)C(=O)N[C@@H](CC(C)C)C(=O)N1)C(=O)N(C)CC(N)=O (single isomer, unassigned) [compound 402] | < 10 nM | < 10 nM | < 10 nM | < 10 nM |  |  |  |  |
| CCCC[C@H](NC(=O)[C@H](C)NC(=O)[C@H](C)NC(=O)[C@]1(C)CCCC=CCCCCCC[C@@](C)(NC(=O)[C@H](Cc2ccccc2)NC(=O)[C@@H](NC(=O)[C@H](CC(C)C)NC(C)=O)[C@@H](C)O)C(=O)N[C@@H](C)C(=O)N[C@@H](Cc2ccc(O)cc2)C(=O)N[C@@H](Cc2c[nH]c3ccccc23)C(=O)N[C@@H](C)C(=O)N[C@@H](CCC(N)=O)C(=O)N[C@@H](CC(C)C)C(=O)N1)C(=O)N[C@@H](C)C(=O)NC(C)(C)C(N)=O (single isomer, unassigned) [compound 404] | 10 to 100 nM | < 10 nM | 10 to 100 nM | < 10 nM |  |  |  |  |
| CCCC[C@H](NC(=O)[C@H](C)NC(=O)[C@H](C)NC(=O)[C@]1(C)CCCC=CCCCCCC[C@@](C)(NC(=O)[C@H](Cc2ccccc2)NC(=O)[C@@H](NC(=O)[C@H](CC(C)C)NC(C)=O)[C@@H](C)O)C(=O)N[C@@H](C)C(=O)N[C@@H](Cc2ccc(O)cc2)C(=O)N[C@@H](Cc2c[nH]c3ccccc23)C(=O)N[C@@H](C)C(=O)N[C@@H](CCC(N)=O)C(=O)N[C@@H](CC(C)C)C(=O)N1)C(=O)N[C@@H](C)C(=O)N[C@H](C)C(N)=O (single isomer, unassigned) [compound 408] | 10 to 100 nM | < 10 nM | 10 to 100 nM | 10 to 100 nM |  |  |  |  |
| CCCC[C@H](NC(=O)[C@H](C)NC(=O)[C@H](C)NC(=O)[C@]1(C)CCCC=CCCCCCC[C@@](C)(NC(=O)[C@H](Cc2ccccc2)NC(=O)[C@@H](NC(=O)[C@H](CC(C)C)NC(C)=O)[C@@H](C)O)C(=O)N[C@@H](C)C(=O)N[C@@H](Cc2ccc(O)cc2)C(=O)N[C@@H](Cc2c[nH]c3ccccc23)C(=O)N[C@@H](C)C(=O)N[C@@H](CCC(N)=O)C(=O)N[C@@H](CC(C)C)C(=O)N1)C(=O)N[C@@H](C)C(=O)N(C)CC(N)=O (single isomer, unassigned) [compound 410] | < 10 nM | < 10 nM | < 10 nM | < 10 nM |  |  |  |  |
| CCCC[C@H](NC(=O)[C@H](C)NC(=O)[C@H](C)NC(=O)[C@]1(C)CCCC=CCCCCCC[C@@](C)(NC(=O)[C@H](Cc2ccccc2)NC(=O)[C@@H](NC(=O)[C@H](CC(C)C)NC(C)=O)[C@@H](C)O)C(=O)N[C@@H](C)C(=O)N[C@@H](Cc2ccc(O)cc2)C(=O)N[C@@H](Cc2c[nH]c3ccccc23)C(=O)N[C@@H](C)C(=O)N[C@@H](CCC(N)=O)C(=O)N[C@@H](CC(C)C)C(=O)N1)C(=O)N[C@@H](C)C(=O)O (single isomer, unassigned) [compound 421] | < 10 nM | < 10 nM | < 10 nM | < 10 nM |  |  |  |  |
| CCCC[C@H](NC(=O)[C@H](C)NC(=O)[C@H](C)NC(=O)[C@]1(C)CCCC=CCCCCCC[C@@](C)(NC(=O)[C@H](Cc2ccccc2)NC(=O)[C@@H](NC(=O)[C@H](CC(C)C)NC(C)=O)[C@@H](C)O)C(=O)N[C@@H](C)C(=O)N[C@@H](Cc2ccc(O)cc2)C(=O)N[C@@H](Cc2c[nH]c3ccccc23)C(=O)N[C@@H](C)C(=O)N[C@@H](CCC(N)=O)C(=O)N[C@@H](CC(C)C)C(=O)N1)C(=O)N[C@@H](C)C(=O)NCCC (single isomer, unassigned) [compound 423] | 10 to 100 nM | < 10 nM | 10 to 100 nM | 10 to 100 nM |  |  |  |  |
| CCCC[C@H](NC(=O)[C@H](C)NC(=O)[C@H](C)NC(=O)[C@]1(C)CCCC=CCCCCCC[C@@](C)(NC(=O)[C@H](Cc2ccccc2)NC(=O)[C@@H](NC(=O)[C@H](CC(C)C)NC(C)=O)[C@@H](C)O)C(=O)N[C@@H](C)C(=O)N[C@@H](Cc2ccc(O)cc2)C(=O)N[C@@H](Cc2c[nH]c3ccccc23)C(=O)N[C@@H](C)C(=O)N[C@@H](CCC(N)=O)C(=O)N[C@@H](CC(C)C)C(=O)N1)C(=O)N[C@@H](C)C(=O)NCCC(C)(C)C (single isomer, unassigned) [compound 425] | 10 to 100 nM | 10 to 100 nM | 10 to 100 nM | 10 to 100 nM |  |  |  |  |
| CCCCCCNC(=O)[C@H](C)NC(=O)[C@H](CCCC)NC(=O)[C@H](C)NC(=O)[C@H](C)NC(=O)[C@]1(C)CCCC=CCCCCCC[C@@](C)(NC(=O)[C@H](Cc2ccccc2)NC(=O)[C@@H](NC(=O)[C@H](CC(C)C)NC(C)=O)[C@@H](C)O)C(=O)N[C@@H](C)C(=O)N[C@@H](Cc2ccc(O)cc2)C(=O)N[C@@H](Cc2c[nH]c3ccccc23)C(=O)N[C@@H](C)C(=O)N[C@@H](CCC(N)=O)C(=O)N[C@@H](CC(C)C)C(=O)N1 (single isomer, unassigned) [compound 427] | 100 to 1000 nM | 10 to 100 nM | 100 to 1000 nM | 10 to 100 nM |  |  |  |  |
| CC(C)C[C@H](NC(=O)CN(C)C)C(=O)N[C@H](C(=O)N[C@@H](Cc1ccccc1)C(=O)N[C@]1(C)CCCCCCC=CCCC[C@@](C)(C(=O)N[C@@H](C)C(=O)N[C@@H](C)C(=O)N[C@@H](C)C(=O)N[C@@H](C)C(=O)N[C@@H](C)C(=O)N[C@H](C)C(N)=O)NC(=O)[C@H](CC(C)C)NC(=O)[C@H](CCC(N)=O)NC(=O)[C@H](C)NC(=O)[C@H](Cc2c[nH]c3ccccc23)NC(=O)[C@H](Cc2ccc(O)cc2)NC(=O)[C@H](CCC(=O)O)NC1=O)[C@@H](C)O (single isomer, unassigned) [compound 439] |  |  |  |  | < 10 nM | < 10 nM | 10 to 100 nM | < 10 nM |
